# The Kinase Knowledgebase extract (Sharma et al. 2016)
# How the values were obtained:
# PIK3CD (Human) = PIK3CD (Human) (UniProt O00329); assay: Cell-Based Assay; conditions: raji
# PIK3CG (human) = PIK3CG (human) (UniProt P48736); assay: Enzyme Assay
# PIK3CB (Human) = PIK3CB (Human) (UniProt P42338); assay: Enzyme Assay
# PIK3CA (human) = PIK3CA (human) (UniProt P42336); assay: Enzyme Assay
# Chain of PIK3CA (human) (P42336 whole entry, looked up): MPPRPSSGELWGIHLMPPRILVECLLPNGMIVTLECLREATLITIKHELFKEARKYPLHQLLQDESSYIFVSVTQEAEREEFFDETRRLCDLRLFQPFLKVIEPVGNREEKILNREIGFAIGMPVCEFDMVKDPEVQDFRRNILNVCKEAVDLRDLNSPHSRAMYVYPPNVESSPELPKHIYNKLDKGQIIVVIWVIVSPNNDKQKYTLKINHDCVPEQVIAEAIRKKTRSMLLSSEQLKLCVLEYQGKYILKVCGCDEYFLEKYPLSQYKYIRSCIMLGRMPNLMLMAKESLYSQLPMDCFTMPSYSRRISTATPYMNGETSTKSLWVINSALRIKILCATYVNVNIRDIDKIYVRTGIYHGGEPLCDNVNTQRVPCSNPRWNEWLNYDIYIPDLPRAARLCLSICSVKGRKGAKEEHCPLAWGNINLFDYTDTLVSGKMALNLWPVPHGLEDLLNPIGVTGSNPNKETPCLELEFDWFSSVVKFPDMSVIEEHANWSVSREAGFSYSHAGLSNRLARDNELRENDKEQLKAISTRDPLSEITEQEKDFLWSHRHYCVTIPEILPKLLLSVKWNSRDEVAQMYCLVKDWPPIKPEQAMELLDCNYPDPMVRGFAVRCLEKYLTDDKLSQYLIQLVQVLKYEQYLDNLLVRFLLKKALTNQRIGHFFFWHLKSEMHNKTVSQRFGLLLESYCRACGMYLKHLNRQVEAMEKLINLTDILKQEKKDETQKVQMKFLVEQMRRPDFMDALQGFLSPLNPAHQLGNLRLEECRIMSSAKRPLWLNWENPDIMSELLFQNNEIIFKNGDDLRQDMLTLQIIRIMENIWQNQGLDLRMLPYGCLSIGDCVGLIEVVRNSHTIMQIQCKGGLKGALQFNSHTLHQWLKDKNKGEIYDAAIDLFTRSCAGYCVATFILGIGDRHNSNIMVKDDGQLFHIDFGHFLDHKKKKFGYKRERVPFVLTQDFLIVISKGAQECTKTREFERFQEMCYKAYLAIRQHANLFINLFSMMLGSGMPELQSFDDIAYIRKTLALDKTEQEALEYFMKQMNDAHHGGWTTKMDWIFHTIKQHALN
# Chain of PIK3CG (human) (P48736 whole entry, looked up): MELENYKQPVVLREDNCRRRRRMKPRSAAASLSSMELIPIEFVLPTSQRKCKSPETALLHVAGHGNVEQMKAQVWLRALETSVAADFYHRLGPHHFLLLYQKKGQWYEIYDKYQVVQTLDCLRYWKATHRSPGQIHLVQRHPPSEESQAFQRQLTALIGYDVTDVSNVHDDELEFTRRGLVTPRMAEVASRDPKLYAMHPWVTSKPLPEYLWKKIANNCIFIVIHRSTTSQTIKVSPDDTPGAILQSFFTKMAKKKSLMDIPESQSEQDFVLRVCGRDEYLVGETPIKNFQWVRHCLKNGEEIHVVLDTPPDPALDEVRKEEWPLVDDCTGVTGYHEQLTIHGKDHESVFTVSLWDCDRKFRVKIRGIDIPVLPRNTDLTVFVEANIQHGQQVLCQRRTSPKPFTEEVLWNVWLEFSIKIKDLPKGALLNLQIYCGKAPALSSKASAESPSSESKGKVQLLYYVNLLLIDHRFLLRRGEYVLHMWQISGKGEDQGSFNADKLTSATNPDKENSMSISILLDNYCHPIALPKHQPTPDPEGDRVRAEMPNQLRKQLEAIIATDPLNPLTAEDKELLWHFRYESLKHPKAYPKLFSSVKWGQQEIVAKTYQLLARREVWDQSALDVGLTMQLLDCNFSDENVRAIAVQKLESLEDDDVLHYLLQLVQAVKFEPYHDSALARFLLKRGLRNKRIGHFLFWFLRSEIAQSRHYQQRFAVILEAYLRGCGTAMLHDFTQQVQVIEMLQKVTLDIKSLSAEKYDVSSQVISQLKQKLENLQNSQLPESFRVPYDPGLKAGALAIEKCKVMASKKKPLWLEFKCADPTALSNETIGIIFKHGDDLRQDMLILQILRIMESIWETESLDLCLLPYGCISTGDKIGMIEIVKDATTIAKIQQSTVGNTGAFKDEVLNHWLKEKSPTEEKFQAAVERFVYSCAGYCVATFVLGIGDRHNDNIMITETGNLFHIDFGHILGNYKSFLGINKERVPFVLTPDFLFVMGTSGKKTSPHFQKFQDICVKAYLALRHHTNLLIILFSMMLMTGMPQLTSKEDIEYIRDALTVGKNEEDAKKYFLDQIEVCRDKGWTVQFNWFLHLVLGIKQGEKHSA
# Chain of PIK3CD (Human) (O00329 whole entry, looked up): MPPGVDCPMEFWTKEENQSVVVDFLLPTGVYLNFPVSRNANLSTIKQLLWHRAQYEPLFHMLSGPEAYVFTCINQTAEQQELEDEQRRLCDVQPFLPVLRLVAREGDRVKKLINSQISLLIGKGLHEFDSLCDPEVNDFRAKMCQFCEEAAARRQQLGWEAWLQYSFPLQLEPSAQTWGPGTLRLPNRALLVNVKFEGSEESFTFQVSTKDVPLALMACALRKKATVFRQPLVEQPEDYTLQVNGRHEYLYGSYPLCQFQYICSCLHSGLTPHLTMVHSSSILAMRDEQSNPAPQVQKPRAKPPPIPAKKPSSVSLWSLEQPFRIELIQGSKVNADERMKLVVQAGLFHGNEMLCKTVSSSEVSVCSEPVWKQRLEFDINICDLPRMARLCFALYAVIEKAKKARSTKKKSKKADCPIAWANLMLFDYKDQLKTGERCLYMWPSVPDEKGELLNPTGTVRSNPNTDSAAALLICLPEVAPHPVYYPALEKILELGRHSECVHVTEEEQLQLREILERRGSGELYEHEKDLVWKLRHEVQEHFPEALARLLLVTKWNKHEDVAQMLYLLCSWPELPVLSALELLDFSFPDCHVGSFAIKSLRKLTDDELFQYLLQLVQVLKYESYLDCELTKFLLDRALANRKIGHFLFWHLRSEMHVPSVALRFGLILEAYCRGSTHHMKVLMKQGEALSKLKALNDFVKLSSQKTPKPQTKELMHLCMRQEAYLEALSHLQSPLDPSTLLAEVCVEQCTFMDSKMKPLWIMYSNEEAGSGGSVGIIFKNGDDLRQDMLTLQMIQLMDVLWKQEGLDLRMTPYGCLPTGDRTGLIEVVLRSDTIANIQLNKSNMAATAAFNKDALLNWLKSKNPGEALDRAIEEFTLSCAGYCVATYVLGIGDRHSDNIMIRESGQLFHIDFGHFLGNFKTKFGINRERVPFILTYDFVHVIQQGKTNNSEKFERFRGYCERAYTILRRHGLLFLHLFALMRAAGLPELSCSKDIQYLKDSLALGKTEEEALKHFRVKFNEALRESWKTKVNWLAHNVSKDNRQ
# Chain of PIK3CB (Human) (P42338 whole entry, looked up): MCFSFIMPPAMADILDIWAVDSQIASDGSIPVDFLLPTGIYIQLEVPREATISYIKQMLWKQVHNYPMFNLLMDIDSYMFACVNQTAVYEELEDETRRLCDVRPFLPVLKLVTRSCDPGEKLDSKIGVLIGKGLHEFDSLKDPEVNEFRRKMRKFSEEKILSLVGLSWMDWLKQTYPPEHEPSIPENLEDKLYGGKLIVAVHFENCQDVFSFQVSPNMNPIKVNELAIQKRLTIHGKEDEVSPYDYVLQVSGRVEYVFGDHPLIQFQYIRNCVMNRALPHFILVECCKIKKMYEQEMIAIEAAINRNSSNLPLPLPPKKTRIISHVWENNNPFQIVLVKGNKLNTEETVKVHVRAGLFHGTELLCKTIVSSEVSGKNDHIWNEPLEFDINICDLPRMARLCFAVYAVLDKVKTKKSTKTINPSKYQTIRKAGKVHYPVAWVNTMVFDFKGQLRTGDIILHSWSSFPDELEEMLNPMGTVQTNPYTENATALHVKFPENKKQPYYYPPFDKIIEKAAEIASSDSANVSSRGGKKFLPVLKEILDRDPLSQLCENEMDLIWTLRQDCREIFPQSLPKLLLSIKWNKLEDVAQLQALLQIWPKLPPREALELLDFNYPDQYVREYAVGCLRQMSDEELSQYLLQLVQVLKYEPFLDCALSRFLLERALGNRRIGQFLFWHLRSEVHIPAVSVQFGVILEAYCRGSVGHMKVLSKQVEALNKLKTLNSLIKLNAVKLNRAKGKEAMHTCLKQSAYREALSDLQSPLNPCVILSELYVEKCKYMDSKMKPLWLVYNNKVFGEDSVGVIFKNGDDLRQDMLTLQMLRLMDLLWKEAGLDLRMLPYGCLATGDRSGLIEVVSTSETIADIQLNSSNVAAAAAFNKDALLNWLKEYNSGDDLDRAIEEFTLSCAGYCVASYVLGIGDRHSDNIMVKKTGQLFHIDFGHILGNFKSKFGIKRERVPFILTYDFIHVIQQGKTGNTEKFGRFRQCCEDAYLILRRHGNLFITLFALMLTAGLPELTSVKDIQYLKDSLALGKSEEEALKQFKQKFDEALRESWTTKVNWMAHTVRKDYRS
Structure (SMILES),IC50 (PIK3CD (Human)),IC50 (PIK3CG (human)),IC50 (PIK3CB (Human)),IC50 (PIK3CA (human))
COc1cc(-c2cccc3cc([C@H](C)NC(=O)c4c(N)nn5ccc(C)nc45)n(-c4ccccc4)c(=O)c23)ccn1,< 100 nM,100 to 1000 nM,≥ 10000 nM,–
C[C@H](NC(=O)c1cnc2cccnn12)c1cc2cccc(Cl)c2c(=O)n1-c1ccc(F)cc1,< 100 nM,–,–,–
COc1cc(-c2cccc3cc([C@H](C)NC(=O)c4c(N)nn5cccnc45)n(-c4ccccc4)c(=O)c23)ccn1,< 100 nM,100 to 1000 nM,–,–
C[C@H](NC(=O)c1c(N)nn2cccnc12)c1cc2cccc(C#CCNS(C)(=O)=O)c2c(=O)n1-c1ccccc1,100 to 1000 nM,100 to 1000 nM,–,–
C[C@H](NC(=O)c1c(N)nn2cccnc12)c1cc2cccc(C#CCCNC(=O)[C@@H]3CCC(=O)O3)c2c(=O)n1-c1ccccc1,< 100 nM,100 to 1000 nM,≥ 10000 nM,–
C[C@H](NC(=O)c1c(N)nn2cccnc12)c1c(Br)c2cccc(F)c2c(=O)n1-c1ccccc1,–,100 to 1000 nM,–,–
C[C@H](NC(=O)c1nc(-c2cccc(S(=O)(=O)N3CCCC3)c2)cnc1N)c1cc2cccc(Cl)c2c(=O)n1-c1ccccc1,–,–,–,≥ 10000 nM
C[C@H](NC(=O)c1nc(-c2cccc(S(=O)(=O)NC(C)(C)C)c2)cnc1N)c1cc2cccc(Cl)c2c(=O)n1-c1ccccc1,< 100 nM,100 to 1000 nM,–,–
CC(C)c1ccn2nc(N)c(C(=O)N[C@@H](C)c3cc4cccc(Cl)c4c(=O)n3-c3ccccc3)c2n1,100 to 1000 nM,–,–,≥ 10000 nM
C[C@H](NC(=O)c1c(N)nn2cccnc12)c1cc2cccc(Cl)c2c(=O)n1-c1ccc(F)c(F)c1,100 to 1000 nM,< 100 nM,–,–
C[C@H](NC(=O)c1c(N)nn2cccnc12)c1cc2cccc(-c3ccn[nH]3)c2c(=O)n1-c1ccccc1,100 to 1000 nM,100 to 1000 nM,≥ 10000 nM,–
C[C@H](NC(=O)c1nc(-c2cn[nH]c2)cnc1N)c1cc2cccc(Cl)c2c(=O)n1-c1ccccc1,< 100 nM,100 to 1000 nM,–,–
C[C@H](NC(=O)c1cnn2cccnc12)c1cc2cccc(Cl)c2c(=O)n1-c1ccccc1,100 to 1000 nM,–,–,≥ 10000 nM
Cc1cccc2cc([C@H](C)NC(=O)c3c(N)nn4cccnc34)n(-c3ccccc3)c(=O)c12,< 100 nM,100 to 1000 nM,–,–
C[C@H](NC(=O)c1c(N)nn2cccnc12)c1cc2cccc(C=O)c2c(=O)n1-c1ccccc1,100 to 1000 nM,–,–,≥ 10000 nM
C[C@H](NC(=O)c1c(N)nn2cccnc12)c1cc2cccc(Cl)c2c(=O)n1-c1ccc(F)cc1,< 100 nM,< 100 nM,100 to 1000 nM,–

Structure (SMILES),IC50 (PIK3CD (Human)),IC50 (PIK3CG (human)),IC50 (PIK3CB (Human)),IC50 (PIK3CA (human))
C[C@H](NC(=O)c1c(N)nn2cccnc12)c1cc2cccc(C#CCNC(=O)[C@H]3CCC(=O)O3)c2c(=O)n1-c1ccccc1,< 100 nM,< 100 nM,–,–
COc1cc(-c2cccc3cc([C@H](C)NC(=O)c4c(N)nn5cccnc45)n(C)c(=O)c23)ccn1,< 100 nM,–,≥ 10000 nM,–
C[C@H](NC(=O)c1cnn2cccnc12)c1cc2cccc(C#CCNC(=O)[C@@H]3CCC(=O)N3)c2c(=O)n1-c1ccccc1,100 to 1000 nM,100 to 1000 nM,–,–
Cc1cnc(N)c(C(=O)N[C@@H](C)c2cc3cccc(Cl)c3c(=O)n2-c2ccccc2)n1,100 to 1000 nM,–,–,≥ 10000 nM
C[C@H](NC(=O)c1c(N)nn2cccnc12)c1cc2cccc(-c3ccccc3)c2c(=O)n1-c1ccccc1,100 to 1000 nM,100 to 1000 nM,≥ 10000 nM,–
C[C@H](NC(=O)c1c(N)nn2cccnc12)c1cc2cccc(C#CCCN)c2c(=O)n1-c1ccccc1,100 to 1000 nM,100 to 1000 nM,–,–
C[C@H](NC(=O)c1c(N)nn2cccnc12)c1cc2cccc(Cl)c2c(=O)n1C1CCCCC1,< 100 nM,–,–,–
C[C@H](NC(=O)c1nc(-c2cccc(NS(C)(=O)=O)c2)cnc1N)c1cc2cccc(Cl)c2c(=O)n1C1CC1,< 100 nM,< 100 nM,100 to 1000 nM,–
COc1ncc(-c2cccc3cc([C@H](C)NC(=O)c4c(N)nn5cccnc45)n(-c4ccccc4)c(=O)c23)cn1,< 100 nM,100 to 1000 nM,–,–
C[C@H](NC(=O)c1nc(-c2cccc(S(N)(=O)=O)c2)cnc1N)c1cc2cccc(Cl)c2c(=O)n1-c1ccccc1,100 to 1000 nM,100 to 1000 nM,100 to 1000 nM,–
Cc1cc(C)n2nc(N)c(C(=O)N[C@@H](C)c3cc4cccc(Cl)c4c(=O)n3-c3ccccc3)c2n1,< 100 nM,100 to 1000 nM,100 to 1000 nM,–
C[C@H](NC(=O)c1c(N)nn2cccnc12)c1cc2cccc(C#CCN)c2c(=O)n1-c1ccccc1,100 to 1000 nM,100 to 1000 nM,–,–
CC(=O)Nc1ccc(-c2cccc3cc([C@H](C)NC(=O)c4c(N)nn5cccnc45)n(-c4ccccc4)c(=O)c23)cc1,< 100 nM,100 to 1000 nM,≥ 10000 nM,–
Cc1ccn2ncc(C(=O)N[C@@H](C)c3cc4cccc(Cl)c4c(=O)n3-c3ccccc3)c2n1,100 to 1000 nM,–,–,≥ 10000 nM
CC(=O)Nc1cccc(-c2cccc3cc([C@H](C)NC(=O)c4c(N)nn5cccnc45)n(-c4ccccc4)c(=O)c23)c1,< 100 nM,100 to 1000 nM,≥ 10000 nM,–
C[C@H](NC(=O)c1c(N)nn2cccnc12)c1cc2cccc(-c3cccs3)c2c(=O)n1-c1ccccc1,100 to 1000 nM,100 to 1000 nM,–,–
